This passage reports activation results from patent US9404081B2, “Pyruvate kinase activators for use in therapy” (AGIOS PHARMACEUTICALS, INC., priority 2011, dated 2016).

Molecules are shown by their SMILES.

Holding throughout (type): biochemical
The target of experiment [1] is PKR R510Q (Homo sapiens, UniProt P30613, R510Q). Description: PKR R510Q Single Point Percent Activation Assay. Particulars: read-out: Act. % 510Q. The method, then:
PKR R510Q Single Point Percent Activation Assay
(§1) A compound described herein was diluted with DMSO and tested at 1 μM concentration. The enzyme was diluted in 1× Buffer: (100 mM KCl, 50 mM Tris 7.5, 5 mM MgCl2, 1 mM DTT, 0.03% BSA). 2 μL of compound solution was first added into wells, and then 180 μL of enzyme solution was added. Assays were assembled except for ADP, and plates were stored for 60 minutes at RT. 20 μL ADP was added to start the assay and assay output was evaluated using OD340 at SpectraMax. The assay was run at room temperature.
Final concentration: PKR R510Q (40 ng/well), Tris pH 7.5 (50 mM), KCl (100 mM), MgCl2 (5 mM), ADP (0.2 mM), PEP (0.11 mM), NADH (180 μM), LDH (0.5 units, Sigma 59023), DTT (1 mM) and BSA (0.03%).

The target of experiment [2] is PKR T384W (Homo sapiens, UniProt P30613, T384W). Description: PKR T384W Single Point Percent Activation Assay. Particulars: read-out: Act. % 384W. On the procedure:
PKR T384W Single Point Percent Activation Assay
A compound described herein was diluted with DMSO and tested at 1 μM concentration. The enzyme was diluted in 1× Buffer: (100 mM KCl, 50 mM Tris 7.5, 5 mM MgCl2, 1 mM DTT, 0.03% BSA). 2 μL of compound solution was first added into wells, and then 180 μL enzyme solution was added. Assays were assembled except for ADP, and plates were stored for 60 minutes at RT. 20 μL ADP was added to start the assay and assay output was evaluated using OD340 at SpectraMax. The assay was run at room temperature.
Final concentration: PKR T384W soluble (300 ng/well), Tris pH 7.5 (50 mM), KCl (100 mM), MgCl2 (5 mM), ADP (0.08 mM), PEP (0.23 mM), NADH (180 μM), LDH (0.5 units, Sigma 59023), DTT (1 mM) and BSA (0.03%).

Experiment [3] concerns the target PKR R532W (Homo sapiens, UniProt P30613, R532W). Briefly: PKR R532W Single Point Percent Activation Assay. Particulars: read-out: Act, % 532W. On the procedure: PKR R532W Single Point Percent Activation Assay
as §1
Final concentration: PKR R532W (100 ng/well), Tris pH 7.5 (50 mM), KCl (100 mM), MgCl2 (5 mM), ADP (0.36 mM), PEP (0.1 mM), NADH (180 μM), LDH (0.5 units, Sigma 59023), DTT (1 mM) and BSA (0.03%).

Experiment [4] has as its target PKR wt (Homo sapiens, UniProt P30613). Briefly: PKR WT Single Point Percent Activation Assay. On the procedure: PKR WT Single Point Percent Activation Assay
as §1
Final concentration: PKR wt (100 ng/well), Tris pH 7.5 (50 mM), KCl (100 mM), MgCl2 (5 mM), ADP (0.48 mM), PEP (0.15 mM), NADH (180 μM), LDH (0.5 units, Sigma 59023), DTT (1 mM) and BSA (0.03%).

PKR R510Q, sequence (P30613 whole entry R510Q): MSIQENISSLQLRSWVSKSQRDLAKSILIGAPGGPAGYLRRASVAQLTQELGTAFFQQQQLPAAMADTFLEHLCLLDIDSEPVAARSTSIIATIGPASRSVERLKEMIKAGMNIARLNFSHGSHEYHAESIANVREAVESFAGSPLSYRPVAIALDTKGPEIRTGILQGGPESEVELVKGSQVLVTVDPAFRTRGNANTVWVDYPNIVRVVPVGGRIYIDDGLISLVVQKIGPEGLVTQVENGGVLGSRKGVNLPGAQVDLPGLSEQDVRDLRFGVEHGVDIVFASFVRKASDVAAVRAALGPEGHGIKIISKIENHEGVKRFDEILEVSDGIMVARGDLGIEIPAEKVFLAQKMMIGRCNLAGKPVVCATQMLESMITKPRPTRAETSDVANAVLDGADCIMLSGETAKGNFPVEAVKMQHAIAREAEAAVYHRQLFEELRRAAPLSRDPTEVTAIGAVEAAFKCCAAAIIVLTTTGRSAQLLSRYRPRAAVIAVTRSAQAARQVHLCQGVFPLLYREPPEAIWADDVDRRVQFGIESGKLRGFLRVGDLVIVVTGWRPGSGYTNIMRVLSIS
PKR wt, sequence (P30613 whole entry): as the sequence (P30613 whole entry R510Q) above, with Q510R counted along it
PKR T384W, sequence (P30613 whole entry T384W): as the sequence (P30613 whole entry R510Q) above, with T384W, Q510R counted along it
PKR R532W, sequence (P30613 whole entry R532W): as the sequence (P30613 whole entry R510Q) above, with Q510R, R532W counted along it

`C[C@H]1CN(C(=O)c2ccc(NS(=O)(=O)c3cccc4cccnc34)cc2)CCN1Cc1ccccc1`: the activation at 1 µM in experiment [1], in experiment [2], in experiment [3] and in experiment [4] was 101 to 500% throughout.

On to `C[C@H]1CN(Cc2ccccc2)CCN1C(=O)c1ccc(NS(=O)(=O)c2cccc3cccnc23)cc1`, for which the activation at 1 µM in experiment [1], in experiment [2], in experiment [3] and in experiment [4] was 101 to 500% throughout.

`C[C@H]1CN(Cc2ccccc2F)CCN1C(=O)c1ccc(NS(=O)(=O)c2cccc3cccnc23)cc1`: the activation at 1 µM is 1 to 100% in experiment [1], 101 to 500% in experiment [2], 101 to 500% in experiment [3] and 101 to 500% in experiment [4].

As for `C[C@H]1CN(CC2CC2)CCN1C(=O)c1ccc(NS(=O)(=O)c2cccc3cccnc23)cc1`, the activation at 1 µM in experiment [1] was in the range of 1 to 100%; in experiment [2] it was 1 to 100%; in experiment [3], 101 to 500%; in experiment [4], 101 to 500%.

As for `C[C@H]1CN(Cc2cc(F)c(F)cc2F)CCN1C(=O)c1ccc(NS(=O)(=O)c2cccc3cccnc23)cc1`, the activation at 1 µM was 1 to 100% in experiment [1], 101 to 500% in experiment [2], 1 to 100% in experiment [3] and 1 to 100% in experiment [4].

As for `COc1cccc(CN2CCN(C(=O)c3ccc(NS(=O)(=O)c4cccc5cccnc45)cc3)[C@@H](C)C2)c1OC`, the activation at 1 µM in experiment [1] is 1 to 100%; in experiment [2], 101 to 500%; in experiment [3] it was 1 to 100%; in experiment [4] it was 101 to 500%.

With `C[C@@H]1CN(CC2CCCO2)CCN1C(=O)c1ccc(NS(=O)(=O)c2cccc3cccnc23)cc1` (some centres unmarked), the activation at 1 µM in experiment [1] lay in the range of 101 to 500%; in experiment [2] it was 1 to 100%; in experiment [3] it was 101 to 500%; in experiment [4], 101 to 500%.

`C[C@@H]1CN(Cc2cc(F)cc(F)c2F)CCN1C(=O)c1ccc(NS(=O)(=O)c2cccc3cccnc23)cc1`: the activation at 1 µM in experiment [1] lay in the range of 1 to 100%; in experiment [2], 1 to 100%; in experiment [3] it was 101 to 500%; in experiment [4], 1 to 100%.

With `C[C@@H]1CN(Cc2cc(F)c(F)c(F)c2)CCN1C(=O)c1ccc(NS(=O)(=O)c2cccc3cccnc23)cc1`, the activation at 1 µM was in the range of 101 to 500% in experiment [1], 1 to 100% in experiment [2], 1 to 100% in experiment [3] and 1 to 100% in experiment [4].

`C[C@@H]1CN(Cc2ccccc2F)CCN1C(=O)c1ccc(NS(=O)(=O)c2cccc3cccnc23)cc1`: the activation at 1 µM in experiment [1], in experiment [2], in experiment [3] and in experiment [4] was 101 to 500% throughout.

With `C[C@@H]1CN(CC2CCCCC2)CCN1C(=O)c1ccc(NS(=O)(=O)c2cccc3cccnc23)cc1`, the activation at 1 µM in experiment [1] was in the range of 101 to 500%; in experiment [2] it was 1 to 100%; in experiment [3] it was 101 to 500%; in experiment [4] it was 101 to 500%.

As to `C[C@H]1CN(Cc2ccc(F)cc2)CCN1C(=O)c1ccc(NS(=O)(=O)c2cccc3cccnc23)cc1`, the activation at 1 µM lay in the range of 101 to 500% in experiment [1], 101 to 500% in experiment [2], 1 to 100% in experiment [3] and 101 to 500% in experiment [4].

With `C[C@H]1CN(CC2CCCCC2)CCN1C(=O)c1ccc(NS(=O)(=O)c2cccc3cccnc23)cc1`, the activation at 1 µM in experiment [1] was 1 to 100%; in experiment [2], 1 to 100%; in experiment [3], 101 to 500%; in experiment [4] it was 1 to 100%.

As for `C[C@H]1CN(Cc2cc(F)c(F)c(F)c2)CCN1C(=O)c1ccc(NS(=O)(=O)c2cccc3cccnc23)cc1`, the activation at 1 µM in experiment [1] lay in the range of 1 to 100%; in experiment [2], 101 to 500%; in experiment [3] it was 1 to 100%; in experiment [4] it was 1 to 100%.

On to `C[C@H]1CN(CC2CCCCO2)CCN1C(=O)c1ccc(NS(=O)(=O)c2cccc3cccnc23)cc1` (some centres unmarked), for which the activation at 1 µM in experiment [1], in experiment [2], in experiment [3] and in experiment [4] was 1 to 100% each time.

Regarding `CC(c1ccc(Cl)c(F)c1)N1CCN(C(=O)c2ccc(NS(=O)(=O)c3cccc4cccnc34)cc2)[C@H](C)C1` (some centres unmarked), the activation at 1 µM was 101 to 500% in experiment [1], 101 to 500% in experiment [2], 1 to 100% in experiment [3] and 1 to 100% in experiment [4].

For the molecule `CC(c1cc(F)c(F)c(F)c1)N1CCN(C(=O)c2ccc(NS(=O)(=O)c3cccc4cccnc34)cc2)[C@H](C)C1` (some centres unmarked), the activation at 1 µM in experiment [1] is 101 to 500%; in experiment [2], 101 to 500%; in experiment [3], 1 to 100%; in experiment [4], 1 to 100%.

Take `CC(c1c(F)cccc1F)N1CCN(C(=O)c2ccc(NS(=O)(=O)c3cccc4cccnc34)cc2)[C@H](C)C1` (some centres unmarked): the activation at 1 µM in experiment [1] fell in the range of 101 to 500%; in experiment [2] it was 1 to 100%; in experiment [3], 1 to 100%; in experiment [4], 1 to 100%.

Consider `CC(c1ccc(F)cc1F)N1CCN(C(=O)c2ccc(NS(=O)(=O)c3cccc4cccnc34)cc2)[C@H](C)C1` (some centres unmarked), for which the activation at 1 µM in experiment [1] was 1 to 100%; in experiment [2], 1 to 100%; in experiment [3], 1 to 100%; in experiment [4] it was 101 to 500%.

Consider `CC[C@H]1CN(C(C)c2cc(F)cc(F)c2)CCN1C(=O)c1ccc(NS(=O)(=O)c2cccc3cccnc23)cc1` (some centres unmarked), for which the activation at 1 µM in experiment [1], in experiment [2], in experiment [3] and in experiment [4] was 1 to 100% each time.

For `CC[C@H]1CN(C(C)c2cc(F)c(F)c(F)c2)CCN1C(=O)c1ccc(NS(=O)(=O)c2cccc3cccnc23)cc1` (some centres unmarked), the activation at 1 µM in experiment [1], in experiment [2], in experiment [3] and in experiment [4] was 1 to 100% each time.

As for `C[C@@H]1CN(CC2CCCCO2)CCN1C(=O)c1ccc(NS(=O)(=O)c2cccc3cccnc23)cc1` (some centres unmarked), the activation at 1 µM in experiment [1] was 1 to 100%; in experiment [2], 101 to 500%; in experiment [3] it was 101 to 500%; in experiment [4] it was 101 to 500%.

As for `C[C@H]1CN(Cc2c(F)cc(F)cc2F)CCN1C(=O)c1ccc(NS(=O)(=O)c2cccc3cccnc23)cc1`, the activation at 1 µM was 1 to 100% in experiment [1], 101 to 500% in experiment [2], 101 to 500% in experiment [3] and 1 to 100% in experiment [4].

Turning to `O=C(c1ccc(NS(=O)(=O)c2cccc3cccnc23)cc1)N1CCN(Cc2ccc(F)cc2)c2ccccc21`, the activation at 1 µM in experiment [1], in experiment [2], in experiment [3] and in experiment [4] was 1 to 100% in each case.

For `CCOC(=O)N1CCN(C(=O)c2ccc(NS(=O)(=O)c3cccc4cccnc34)cc2)c2ccccc21`, the activation at 1 µM was 101 to 500% in experiment [1], 1 to 100% in experiment [2], 101 to 500% in experiment [3] and 101 to 500% in experiment [4].

As for `O=C(c1ccc(NS(=O)(=O)c2cccc3cccnc23)cc1)N1CCN(Cc2ccc(F)cc2)C[C@@H]1c1ccccc1`, the activation at 1 µM in experiment [1], in experiment [2], in experiment [3] and in experiment [4] was 1 to 100% throughout.

Take `C[C@H]1CN(C(=O)O[C@@H]2CCOC2)CCN1C(=O)c1ccc(NS(=O)(=O)c2cccc3cccnc23)cc1`: the activation at 1 µM is 1 to 100% in experiment [1], 101 to 500% in experiment [2], 101 to 500% in experiment [3] and 101 to 500% in experiment [4].

With `CC(c1c(F)cc(F)cc1F)N1CCN(C(=O)c2ccc(NS(=O)(=O)c3cccc4cccnc34)cc2)[C@H](C)C1` (some centres unmarked), the activation at 1 µM in experiment [1] was 1 to 100%; in experiment [2], 101 to 500%; in experiment [3], 101 to 500%; in experiment [4] it was 101 to 500%.

`CC(c1cc(F)c(F)cc1F)N1CCN(C(=O)c2ccc(NS(=O)(=O)c3cccc4cccnc34)cc2)[C@H](C)C1` (some centres unmarked): the activation at 1 µM in experiment [1] fell in the range of 101 to 500%; in experiment [2] it was 1 to 100%; in experiment [3], 101 to 500%; in experiment [4], 101 to 500%.
